Measurements: US10450311B2, “Pesticidally active heterocyclic derivatives with sulphur containing substituents” (Syngenta Participations AG, priority 2014, dated 2019)

How the values were obtained:
Assay type in all cases: in vivo
[1] = test system: Spodoptera littoralis (Egyptian Cotton Leaf Worm); assay: Activity against Spodoptera littoralis, compound in agar taken up by lettuce; details: 144 h, test rate of 12.5 ppm, lettuce root uptake, 6 days after infestation, read-out: effect in at least one of the three categories (mortality, anti-feedancy, or growth inhibition)
Excerpt: Example B10: Activity Against Spodoptera littoralis (Egyptian Cotton Leaf Worm)
(§1) Test compounds were applied by pipette from 10′000 ppm DMSO stock solutions into 24-well plates and mixed with agar. Lettuce seeds were placed on the agar and the multi well plate was closed by another plate which contains also agar. After 7 days the roots have absorbed the compound and the lettuce has grown into the lid plate. The lettuce leafs were now cut off into the lid plate. Spodoptera eggs were pipetted through a plastic stencil on a humid gel blotting paper and the plate closed with it. The samples were assessed for mortality, anti-feedant effect and growth inhibition in comparison to untreated samples 6 days after infestation.

[2] = test system: Spodoptera littoralis (Egyptian Cotton Leaf Worm); assay: Activity against Spodoptera littoralis, sprayed cotton leaf discs; details: foliar, 72 h, application rate of 200 ppm, L1 larvae on cotton leaf discs, 3 days after infestation, read-out: control (at least one of mortality, anti-feedant effect, growth inhibition)
Protocol: Example B9: Activity Against Spodoptera littoralis (Egyptian Cotton Leaf Worm)
Cotton leaf discs were placed on agar in 24-well microtiter plates and sprayed with aqueous test solutions prepared from 10′000 ppm DMSO stock solutions. After drying the leaf discs were infested with five L1 larvae. The samples were assessed for mortality, anti-feedant effect, and growth inhibition in comparison to untreated samples 3 days after infestation. Control of Spodoptera littoralis by a test sample is when at least one of mortality, anti-feedant effect, and growth inhibition is higher than the untreated sample.

[3] = test system: Euschistus heros (Neotropical Brown Stink Bug); assay: Activity against Euschistus heros, sprayed soybean leaf; details: 120 h, application rate of 200 ppm, N-2 nymphs on soybean leaf, 5 days after infestation
Protocol: Example B3: Activity Against Euschistus heros (Neotropical Brown Stink Bug)
Soybean leaf on agar in 24-well microtiter plates were sprayed with aqueous test solutions prepared from 10′000 ppm DMSO stock solutions. After drying the leaf were infested with N-2 nymphs. The samples were assessed for mortality 5 days after infestation.

[4] = test system: Diabrotica balteata (Corn Root Worm); assay: Activity against Diabrotica balteata, sprayed maize sprouts; details: 96 h, application rate of 200 ppm, larvae on maize sprouts, 4 days after infestation
Protocol: Example B2: Activity Against Diabrotica balteata (Corn Root Worm)
Maize sprouts, placed on an agar layer in 24-well microtiter plates were treated with aqueous test solutions prepared from 10′000 ppm DMSO stock solutions by spraying. After drying, the plates were infested with […] (6 to 10 per well). The samples were assessed for mortality 4 days after infestation.

[5] = test system: Spodoptera littoralis (Egyptian Cotton Leaf Worm); assay: Activity against Spodoptera littoralis, systemic activity; details: 144 h, test rate of 12.5 ppm, in agar, lettuce root uptake, 6 days after infestation
Excerpt: Example B11: Activity Against Spodoptera littoralis (Egyptian Cotton Leaf Worm), Systemic Activity
as §1, with “mortality” for “mortality, anti-feedant effect and growth inhibition in comparison to untreated samples”

[6] = test system: Myzus persicae (Green Peach Aphid); assay: Activity against Myzus persicae, sprayed sunflower leaf discs; details: foliar, 144 h, application rate of 200 ppm, aphid population of mixed ages on sunflower leaf discs, 6 days after infestation
Protocol: Example B5: Activity Against Myzus persicae (Green Peach Aphid)
Sunflower leaf discs were placed on agar in a 24-well microtiter plate and sprayed with aqueous test solutions prepared from 10′000 ppm DMSO stock solutions. After drying, the leaf discs were infested with an aphid population of mixed ages. The samples were assessed for mortality 6 days after infestation.

[7] = test system: Plutella xylostella (Diamond Back Moth); assay: Activity against Plutella xylostella, treated artificial diet; details: 120 h, application rate of 200 ppm, L2 larvae on artificial diet, 5 days after infestation, read-out: effect in at least one of the two categories (mortality or growth inhibition)
Protocol: Example B8: Activity Against Plutella xylostella (Diamond Back Moth)
24-well microtiter plates with artificial diet were treated with aqueous test solutions prepared from 10′000 ppm DMSO stock solutions by pipetting. After drying, the plates were infested with L2 larvae (10 to 15 per well). The samples were assessed for mortality and growth inhibition in comparison to untreated samples 5 days after infestation.

[8] = test system: Aedes aegypti (Yellow Fever Mosquito); assay: whole plant or invertebrate; details: 48 h, test rate of 5 ppm, L2 larvae in 96-well plates, incubation period of 2 days, read-out: effect in at least one of the two categories (mortality or growth inhibition)
Protocol: Example B14: Activity Against Aedes aegypti (Yellow Fever Mosquito)
10 to 15 Aedes larvae (L2) together with a nutrition mixture were placed in 96-well microtiter plates. Test compounds were pipetted into the wells. After an incubation period of 2 days insects were assessed for mortality and growth inhibition.

[9] = test system: Bemisia tabaci (Cotton White Fly); assay: Activity against Bemisia tabaci, sprayed cotton leaf discs; details: foliar, 144 h, application rate of 200 ppm, adult white flies on cotton leaf discs, 6 days after incubation
Protocol: Example B1: Activity Against Bemisia tabaci (Cotton White Fly)
Cotton leaf discs were placed on agar in 24-well microtiter plates and sprayed with aqueous test solutions prepared from 10′000 ppm DMSO stock solutions. After drying the leaf discs were infested with adult white flies. The samples were checked for mortality 6 days after incubation. […] A35, A36 and A47. A1. A2, A3, A8, A10, A14 and A12.

CCS(=O)(=O)c1cc(-c2cc(C(F)(F)F)ccn2)cnc1-c1nc2cc(C(F)(F)F)n(C)c(=O)c2n1C [Compound A42]
≥ 80%: percent control (mortality, anti-feedancy or growth inhibition) at 12.5 ppm [1] | percent control (mortality, anti-feedant effect or growth inhibition) at 200 ppm [2] | mortality at 200 ppm [3] | mortality at 200 ppm [4] | mortality at 12.5 ppm [5] | mortality at 200 ppm [6] | percent effect (mortality or growth inhibition) at 200 ppm [7] | percent effect (mortality or growth inhibition) at 5 ppm [8]

CCS(=O)(=O)c1cc(-n2ccc(C(F)(F)F)n2)cnc1-c1nc2cc(C(F)(F)F)n(C)c(=O)c2n1C [Compound A27]
≥ 80%: percent control (mortality, anti-feedant effect or growth inhibition) at 200 ppm [2]

CCS(=O)(=O)c1cc(-c2ccc(C(F)(F)F)cc2)ccc1-c1nc2cc(C(F)(F)F)n(C)c(=O)c2n1C [Compound A70, 2-[2-ethylsulfonyl-4-[4-(trifluoromethyl)phenyl]phenyl]-3,5-dimethyl-6-(trifluoromethyl)imidazo[4,5-c]pyridin-4-one]
≥ 80%: percent control (mortality, anti-feedant effect or growth inhibition) at 200 ppm [2] | mortality at 200 ppm [3] | mortality at 200 ppm [4] | percent effect (mortality or growth inhibition) at 200 ppm [7] | percent effect (mortality or growth inhibition) at 5 ppm [8]

CCSc1cc(-n2ccc(C(F)(F)F)n2)cnc1-c1nc2cc(C(F)(F)F)n(C)c(=O)c2n1C [Compound A26, 2-[3-ethylsulfanyl-5-[3-(trifluoromethyl)pyrazol-1-yl]-2-pyridyl]-3,5-dimethyl-6-(trifluoromethyl)imidazo[4,5-c]pyridin-4-one]
≥ 80%: percent control (mortality, anti-feedant effect or growth inhibition) at 200 ppm [2]

CCSc1cc(-c2ccc(C(F)(F)F)cc2)cnc1-c1nc2cc(C(F)(F)F)c(=O)n(C)c2n1C [Compound B5, 2-[3-ethylsulfanyl-5-[4-(trifluoromethyl)phenyl]-2-pyridyl]-3,4-dimethyl-6-(trifluoromethyl)imidazo[4,5-b]pyridin-5-one]
≥ 80%: percent control (mortality, anti-feedant effect or growth inhibition) at 200 ppm [2] | mortality at 200 ppm [3] | mortality at 200 ppm [4]

CCSc1cc(-n2cc(C(F)(F)F)cn2)cnc1-c1nc2cc(C(F)(F)F)n(C)c(=O)c2n1C [Compound A24, 2-[3-ethylsulfanyl-5-[4-(trifluoromethyl)pyrazol-1-yl]-2-pyridyl]-3,5-dimethyl-6-(trifluoromethyl)imidazo[4,5-c]pyridin-4-one]
≥ 80%: percent control (mortality, anti-feedancy or growth inhibition) at 12.5 ppm [1]

CCS(=O)(=O)c1cc(-c2ncccn2)ccc1-c1nc2cc(C(F)(F)F)n(C)c(=O)c2n1C [Compound A71, 2-(2-ethylsulfonyl-4-pyrimidin-2-yl-phenyl)-3,5-dimethyl-6-(trifluoromethyl)imidazo[4,5-c]pyridin-4-one]
≥ 80%: percent control (mortality, anti-feedant effect or growth inhibition) at 200 ppm [2] | mortality at 200 ppm [3] | mortality at 200 ppm [6] | percent effect (mortality or growth inhibition) at 200 ppm [7]

CCS(=O)(=O)c1cc(Br)cnc1-c1nc2cc(C(F)(F)F)n(C)c(=O)c2n1C [Compound A21, 2-[5-bromo-3-ethylsulfonyl-2-pyridyl]-3,5-dimethyl-6-(trifluoromethyl)imidazo[4,5-c]pyridin-4-one]
≥ 80%: percent control (mortality, anti-feedancy or growth inhibition) at 12.5 ppm [1] | percent control (mortality, anti-feedant effect or growth inhibition) at 200 ppm [2] | mortality at 200 ppm [3] | mortality at 200 ppm [4] | mortality at 12.5 ppm [5] | mortality at 200 ppm [6] | percent effect (mortality or growth inhibition) at 200 ppm [7]

CCS(=O)(=O)c1cc(-c2ccc(C(F)(F)F)cc2)cnc1-c1nc2cc(Br)c(=O)n(C)c2n1C [Compound B3]
≥ 80%: percent control (mortality, anti-feedant effect or growth inhibition) at 200 ppm [2] | mortality at 200 ppm [3] | mortality at 200 ppm [4] | mortality at 200 ppm [6] | percent effect (mortality or growth inhibition) at 200 ppm [7]

CCS(=O)(=O)c1cc(-c2ccc(C(F)(F)F)cc2)cnc1-c1nc2cc(C(F)(F)F)n(C)c(=O)c2n1C [Compound A22, 2-[3-ethylsulfonyl-5-[4-(trifluoromethyl)phenyl]-2-pyridyl]-3,5-dimethyl-6-(trifluoromethyl)imidazo[4,5-c]pyridin-4-one]
≥ 80%: percent control (mortality, anti-feedancy or growth inhibition) at 12.5 ppm [1] | percent control (mortality, anti-feedant effect or growth inhibition) at 200 ppm [2] | mortality at 200 ppm [3] | mortality at 200 ppm [4] | mortality at 12.5 ppm [5] | mortality at 200 ppm [6] | percent effect (mortality or growth inhibition) at 200 ppm [7] | percent effect (mortality or growth inhibition) at 5 ppm [8]

CCS(=O)(=O)c1cc(-c2ccc(Cl)cc2)ccc1-c1nc2cc(C(F)(F)F)n(C)c(=O)c2n1C [Compound A72, 2-[4-(4-chlorophenyl)-2-ethylsulfonyl-phenyl]-3,5-dimethyl-6-(trifluoromethyl)imidazo[4,5-c]pyridin-4-one]
≥ 80%: percent control (mortality, anti-feedant effect or growth inhibition) at 200 ppm [2] | mortality at 200 ppm [3] | mortality at 200 ppm [4] | percent effect (mortality or growth inhibition) at 200 ppm [7]

C=CCn1c(C(F)(F)F)cc2nc(-c3ncc(C(F)(F)F)cc3S(=O)(=O)CC)n(C)c2c1=O [Compound A3, 5-allyl-2-[3-ethylsulfonyl-5-(trifluoromethyl)-2-pyridyl]-3-methyl-6-(trifluoromethyl)imidazo[4,5-c]pyridin-4-one]
≥ 80%: mortality at 200 ppm [9] | percent control (mortality, anti-feedant effect or growth inhibition) at 200 ppm [2] | mortality at 200 ppm [3] | mortality at 200 ppm [4] | percent effect (mortality or growth inhibition) at 200 ppm [7]

CCS(=O)(=O)c1cc(-c2cc(F)cc(F)c2)cnc1-c1nc2cc(C(F)(F)F)n(C)c(=O)c2n1C [Compound A28, 2-[5-(3,5-difluorophenyl)-3-ethylsulfonyl-2-pyridyl]-3,5-dimethyl-6-(trifluoromethyl)imidazo[4,5-c]pyridin-4-one]
≥ 80%: percent control (mortality, anti-feedancy or growth inhibition) at 12.5 ppm [1] | percent control (mortality, anti-feedant effect or growth inhibition) at 200 ppm [2] | mortality at 200 ppm [3] | mortality at 200 ppm [4] | mortality at 12.5 ppm [5] | percent effect (mortality or growth inhibition) at 200 ppm [7] | percent effect (mortality or growth inhibition) at 5 ppm [8]

CCS(=O)(=O)c1cc(-c2ccc(C#N)cc2)cnc1-c1nc2cc(C(F)(F)F)n(C)c(=O)c2n1C [Compound A41, 4-[6-[3,5-dimethyl-4-OXO-6-(trifluoromethyl)imidazo[4,5-c]pyridin-2-yl]-5-ethylsulfonyl-3-pyridyl]benzonitrile]
≥ 80%: percent control (mortality, anti-feedancy or growth inhibition) at 12.5 ppm [1] | percent control (mortality, anti-feedant effect or growth inhibition) at 200 ppm [2] | mortality at 200 ppm [3] | mortality at 200 ppm [4] | mortality at 12.5 ppm [5] | mortality at 200 ppm [6] | percent effect (mortality or growth inhibition) at 200 ppm [7] | percent effect (mortality or growth inhibition) at 5 ppm [8]
